The assay concerns CRP. Description: Serum CRP concentration in humans, A-002 once a day (Example 6). Format: in vivo, human. As to conditions: week 8. How it is done:
135 human subjects over the age of 18 with CVD, specifically stable CAD, were randomized to receive either placebo or one of two dosages (250 mg or 500 mg) of A-002 via once a day oral administration over an eight week time period. 89 of the subjects received A-002, while 46 of the subjects received placebo. Subjects that were receiving statins or other compounds used in the treatment of CVD at the outset of the trial continued to receive those therapeutics throughout the trial. 121 of the 135 subjects were on statins during the trial. There was little variation between dosage groups with respect to age, height, weight, or BMI.
Levels of various lipids and inflammatory markers were measured at the outset of the trial and at weeks two, four, and/or eight weeks after the start of A-002 administration. In addition, plasma A-002 levels were measured at various intervals. Lipids that were measured included LDL, small LDL particle, oxidized LDL, non-HDL cholesterol, total cholesterol, ApoB, and triglycerides. In addition, levels of the inflammatory marker CRP were measured. Lipid and inflammatory marker levels at each timepoint were compared to the baseline measurements to determine the effect of A-002 administration. For data sets with a normal distribution, mean levels of lipids or inflammatory markers were analyzed. For data sets with non-normal distribution, median levels were analyzed. LDL particle size was also assessed.

The mark [1] stands for this setting: statin subpopulation with baseline serum LDL greater than 70 mg/dl.

Consider `CCc1c(C(=O)C(N)=O)c2c(OCC(=O)OC)cccc2n1Cc1ccccc1` [A-002, [[3-(2-Amino-1,2-dioxoethyl)-2-ethyl-1-(phenylmethyl)-1H-indol-4-yl]oxy]acetic acid methyl ester], for which the “% change vs. baseline (median [CRP])” value runs as follows: (ITT population) “+5.4%”; under setting [1], “+9.1%”; (statin subpopulation) “+8.7%”. The “Change in median [CRP] vs. baseline” value runs as follows: under setting [1], “+0.10 mg/L”; (statin subpopulation) “+0.10 mg/L”.

(Values after patent publication US8048880B2, “Treatment of cardiovascular disease and dyslipidemia using secretory phospholipase A2 (SPLA2) inhibitors and SPLA2 inhibitor combination therapies” (Anthera Pharmaceuticals, Inc., priority 2007, dated 2011).)
